The target in the assay is T1, BTK (Homo sapiens, UniProt Q06187).
T1 construct: endogenous in cells; host or cells: TMD-8 cells
Description: BTK degradation in TMD-8 cells, HTRF assay after 6 h treatment. The format is cell-based. As to conditions: IC50 (DC50) of BTK degradation. In short, it runs like this: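 Remaining BTK was quantified by HTRF in lysates of TMD-8 cells after 6 h exposure to an 8-point, 6-fold compound series (500× stocks in DMSO starting at 1 mM; 0.2% DMSO). Lysis 30 min, antibodies overnight at room temperature, ratio read at 665/620 nm; DC50 fitted with a four-parameter logistic equation.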
(TR-FRET usually uses a lanthanide donor and a delayed reading to cut background.)

Counter-ions that a name gives are not always drawn.

T1 sequence (Q06187 whole entry): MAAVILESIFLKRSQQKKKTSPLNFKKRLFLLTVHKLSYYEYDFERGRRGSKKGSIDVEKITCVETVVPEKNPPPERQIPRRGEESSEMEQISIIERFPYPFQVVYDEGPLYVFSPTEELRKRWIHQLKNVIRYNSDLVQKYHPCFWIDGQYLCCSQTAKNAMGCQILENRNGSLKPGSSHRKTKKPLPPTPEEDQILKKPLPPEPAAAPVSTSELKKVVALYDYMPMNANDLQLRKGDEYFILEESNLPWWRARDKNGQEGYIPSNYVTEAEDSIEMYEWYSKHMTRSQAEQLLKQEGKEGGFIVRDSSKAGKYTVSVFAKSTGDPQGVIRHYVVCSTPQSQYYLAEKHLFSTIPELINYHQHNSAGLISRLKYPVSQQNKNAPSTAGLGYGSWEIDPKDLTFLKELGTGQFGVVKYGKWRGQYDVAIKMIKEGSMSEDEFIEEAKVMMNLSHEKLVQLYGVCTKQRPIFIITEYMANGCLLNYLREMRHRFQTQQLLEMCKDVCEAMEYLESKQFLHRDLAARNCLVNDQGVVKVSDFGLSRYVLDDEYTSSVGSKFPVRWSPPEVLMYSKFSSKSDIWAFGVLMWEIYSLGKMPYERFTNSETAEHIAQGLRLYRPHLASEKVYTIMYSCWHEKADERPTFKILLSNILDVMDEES

Usually DC50 stands for the midpoint of the concentration-degradation curve. Read a high DC50 as degradation only at high concentration. Turning to `Cc1cc(-c2n[nH]c3ncc(-c4ccc(N5CC6CN(CCc7ccc(C8CCC(=O)NC8=O)cc7)CC6C5)cn4)cc23)ccc1[C@@H](C)NC(=O)c1noc(C(C)(C)C)n1` (stereo partly drawn) [Example 174, 5-(tert-butyl)-N-((1R)-1-(4-(5-(5-(5-(4-(2,6-dioxopiperidin-3-yl)phenethyl)hexahydropyrrolo[3,4-c]pyrrol-2(1H)-yl)pyridin-2-yl)-1H-pyrazolo[3,4-b]pyridin-3-yl)-2-methylphenyl)ethyl)-1,2,4-oxadiazole-3-carboxamide], the DC50 stood at 1.68 nM. `Cc1cc(-c2n[nH]c3ncc(-c4ccc(N5CCN(CC(F)(F)c6ccc(C7CCC(=O)NC7=O)cc6)CC5)cc4)cc23)ccc1[C@@H](C)NC(=O)c1noc(C(C)(C)C)n1` (stereo partly drawn) [Example 175, 5-(tert-butyl)-N-((1R)-1-(4-(5-(4-(4-(2-(4-(2,6-dioxopiperidin-3-yl)phenyl)-2,2-difluoroethyl)piperazin-1-yl)phenyl)-1H-pyrazolo[3,4-b]pyridin-3-yl)-2-methylphenyl)ethyl)-1,2,4-oxadiazole-3-carboxamide] had a DC50 of 8.39 nM. On to `Cc1cc(-c2n[nH]c3ncc(-c4ccc(N5CCN(C6CC(c7ccc(C8CCC(=O)NC8=O)cc7)C6)CC5)cc4)cc23)ccc1[C@@H](C)NC(=O)c1noc(C(C)(C)C)n1` (stereo partly drawn) [Example 176, 5-(tert-butyl)-N-((1R)-1-(4-(5-(4-(4-(3-(4-(2,6-dioxopiperidin-3-yl)phenyl)cyclobutyl)piperazin-1-yl)phenyl)-1H-pyrazolo[3,4-b]pyridin-3-yl)-2-methylphenyl)ethyl)-1,2,4-oxadiazole-3-carboxamide formate], for which, under “formate”, half-maximal degradation (DC50) was put at 1.89 nM. Consider `Cc1nc(CCN2CCN(c3ccc(-c4cnc5[nH]nc(-c6ccc([C@@H](C)NC(=O)c7nc(C(C)(C)C)no7)c(CO)c6)c5c4)cc3)CC2)ccc1C1CCC(=O)NC1=O` (stereo partly drawn) [Example 177, 3-(tert-butyl)-N-((1R)-1-(4-(5-(4-(4-(2-(5-(2,6-dioxopiperidin-3-yl)-6-methylpyridin-2-yl)ethyl)piperazin-1-yl)phenyl)-1H-pyrazolo[3,4-b]pyridin-3-yl)-2-(hydroxymethyl)phenyl)ethyl)-1,2,4-oxadiazole-5-carboxamide], for which half-maximal degradation (DC50) was put at 3.47 nM. Still for that read-out and setting: the same measure for `C[C@@H](NC(=O)c1noc(C(C)(C)C)n1)c1ccc(-c2n[nH]c3ncc(-c4ccc(N5CCN(CC6CCN(c7ccc(N8CCC(=O)NC8=O)cc7)CC6)CC5)nc4)cc23)cc1CO` [Example 178, (R)-5-(tert-butyl)-N-(1-(4-(5-(6-(4-((1-(4-(2,4-dioxotetrahydropyrimidin-1(2H)-yl)phenyl)piperidin-4-yl)methyl)piperazin-1-yl)pyridin-3-yl)-1H-pyrazolo[3,4-b]pyridin-3-yl)-2-(hydroxymethyl)phenyl)ethyl)-1,2,4-oxadiazole-3-carboxamide]: 6.81 nM; for `Cc1cc(N2CCC(CN3CCN(c4ccc(-c5cnc6[nH]nc(-c7ccc([C@@H](C)NC(=O)c8noc(C(C)(C)C)n8)c(CO)c7)c6c5)cn4)CC3)CC2)ccc1N1CCC(=O)NC1=O` [Example 179, (R)-5-(tert-butyl)-N-(1-(4-(5-(6-(4-((1-(4-(2,4-dioxotetrahydropyrimidin-1(2H)-yl)-3-methylphenyl)piperidin-4-yl)methyl)piperazin-1-yl)pyridin-3-yl)-1H-pyrazolo[3,4-b]pyridin-3-yl)-2-(hydroxymethyl)phenyl)ethyl)-1,2,4-oxadiazole-3-carboxamide]: 6.28 nM. Regarding `Cc1cc(-c2n[nH]c3ncc(-c4ccc(N5CCN(C6CCN(c7ccc(NC8CCC(=O)NC8=O)cc7)CC6)CC5)cc4)cc23)ccc1[C@@H](C)NC(=O)c1noc(C(C)(C)C)n1` (stereo partly drawn) [Example 180, 5-(tert-butyl)-N-((1R)-1-(4-(5-(4-(4-(1-(4-((2,6-dioxopiperidin-3-yl)amino)phenyl)piperidin-4-yl)piperazin-1-yl)phenyl)-1H-pyrazolo[3,4-b]pyridin-3-yl)-2-methylphenyl)ethyl)-1,2,4-oxadiazole-3-carboxamide], the DC50 was determined as 4.81 nM.

(Values after patent publication US20230322761A1, “DEGRADATION OF BRUTON'S TYROSINE KINASE (BTK) BY CONJUGATION OF BTK INHIBITORS WITH E3 LIGASE LIGAND AND METHODS OF USE” (BEIGENE, LTD., priority 2020, published 2023).)
